Data set [1] concerns skeletonema costatum. In words: Toxicity to algae, ISO 10253 (OSPAR HOCNF). It counts as in vivo. Particulars: amount required to kill or incapacitate half the test population per amount of water. The text has this: (§1) According to still other embodiments described herein, a disulfonate salt of 2,4-pentanedione is provided. According to one such embodiment, the salt comprises 2,4-pentanedione-1,5-sodium disulfonate. According to another such embodiment, a disulfonate salt of 2,4-pentanedione has an environmentally acceptable toxicity. As used herein, the term “environmentally acceptable toxicity” means that, when tested according to procedures that are the same as or equivalent to those set forth by the OSPAR Guidelines for Completing the Harmonised Offshore Chemical Notification Format (HOCNF) (References number: 2003-1) that were in effect on Dec. 31, 2004, the salt is determined to have a toxicity of greater than about 10,000 mg/L for an algae (skeletonema costatum), a crustacean (acartia tonsa), a fish (scopthalmus) and a sediment reworker (corophium volutator). […]
(§2) In this Example 3, the toxicity results for the skeletonema costatum were determined according to ISO (International Organization for Standardization) 10253, the protocol for which is known to those of ordinary skill in the art, and is also the protocol required under the above-referenced HOCNF Guidelines. The toxicity results for the acartia tonsa were determined according to ISO 14669, the protocol for which is known to those of ordinary skill in the art. […]

Data set [2] has as its system acartia tonsa. Nature of the data set: Toxicity to crustacean, ISO 14669. The data set is classed as in vivo. Particulars: amount required to kill or incapacitate half the test population per amount of water.
Excerpt: as §1, §2

Data set [3] concerns scopthalmus. In words: Toxicity to fish, OSPAR Protocols Part B. It counts as in vivo. As to conditions: amount required to kill or incapacitate half the test population per amount of water.
Excerpt: as §1, §2

The subject of data set [4] is corophium volutator. Nature of the data set: Toxicity to sediment reworker, OSPAR Protocols Part B. Particulars: amount required to kill or incapacitate half the test population per amount of water. The data set is classed as in vivo.
Excerpt: as §1, §2

A short description of data set [5]: Environmentally / nationally acceptable toxicity assessment. As to conditions: concluded from result > about 10,000 mg/L for the species tested. The text has this:
According to still other embodiments described herein, a disulfonate salt of 2,4-pentanedione is provided. According to one such embodiment, the salt comprises 2,4-pentanedione-1,5-sodium disulfonate. According to another such embodiment, a disulfonate salt of 2,4-pentanedione has an environmentally acceptable toxicity. As used herein, the term “environmentally acceptable toxicity” means that, when tested according to procedures that are the same as or equivalent to those set forth by the OSPAR Guidelines for Completing the Harmonised Offshore Chemical Notification Format (HOCNF) (References number: 2003-1) that were in effect on Dec. 31, 2004, the salt is determined to have a toxicity of greater than about 10,000 mg/L for an algae (skeletonema costatum), a crustacean (acartia tonsa), a fish (scopthalmus) and a sediment reworker (corophium volutator).
According to yet another embodiment, a disulfonate salt of 2,4-pentanedione has a “nationally acceptable toxicity.” As used herein, the term “nationally acceptable toxicity” means that when tested according to procedures that are the same as or equivalent to those in effect in a country of interest on Dec. 31, 2004, the salt is determined to have a toxicity acceptable for use in the areas subject to such country's procedures. […]

Data set [6] in a line: Solubility of salt versus free acid on methanol rinse. The data set is classed as physicochemical. As to conditions: compared to 2,4-pentanedione-1,5-disulfonic free acid. The text has this: The neutralized product was then rinsed several times with methanol to remove by-product acids, or any salts formed therefrom, while leaving the 2,4-pentanedione-1,5-sodium disulfonate primarily undissolved. […] The rinsed product was dried in a vacuum oven and filtered through a 300 mesh screen to afford a flowing pale orange/red powder. The resulting powder was 2,4-pentanedione-1,5-sodium disulfonate.

Turning to `O=C(CC(=O)CS(=O)(=O)[O-])CS(=O)(=O)[O-].[Na+].[Na+]` [2,4-pentanedione-1,5-sodium disulfonate], the toxicity result in data set [1], in data set [2], in data set [3] and in data set [4] was “greater than 10,000 mg/L” throughout. In data set [5], the toxicity acceptability result is “low toxicity”. Besides, in data set [6], the “solubility compared to the free acid” value was “significantly less soluble”.

(Values after patent US7293941B2, “Methods for cementing using compositions containing salts” (Halliburton Energy Services, Inc., priority 2005, dated 2007).)
